Assay results taken from US9682991B2, “Tricyclic compounds for use as kinase inhibitors” (FUNDACIÓN CENTRO NACIONAL DE INVESTIGACIONES ONCOLOGICAS …, priority 2009, dated 2017).
pIC50: −log10 of the molar value. Like-named read-outs stand apart in the source and are kept apart here.

Experiments:
PIM-2 = PIM-2 (Homo sapiens (Human), UniProt Q9P1W9); assay: PIM-2 biochemical assay (ADP Hunter); conditions: semi-quantitative; read-out: PIM2 IC50
Source text: The biochemical assay to measure PIM-2 activity relies on the ADP Hunter assay kit (DiscoveRx Corp., Cat. #90-0077), that determines the amount of ADP as direct product of the kinase enzyme activity.

PIM-1 = PIM-1 (Homo sapiens (Human), UniProt P11309); assay: PIM-1 biochemical assay (ADP Hunter)
Sequence of PIM-1 (P11309 whole entry): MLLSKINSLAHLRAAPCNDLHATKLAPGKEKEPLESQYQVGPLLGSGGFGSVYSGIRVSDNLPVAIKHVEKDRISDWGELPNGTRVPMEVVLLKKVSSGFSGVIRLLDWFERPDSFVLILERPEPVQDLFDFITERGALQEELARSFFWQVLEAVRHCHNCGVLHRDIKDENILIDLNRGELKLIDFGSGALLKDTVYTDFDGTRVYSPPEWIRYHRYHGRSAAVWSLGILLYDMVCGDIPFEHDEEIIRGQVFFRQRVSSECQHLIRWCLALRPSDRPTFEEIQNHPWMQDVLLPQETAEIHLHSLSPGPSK

PIM-3 = PIM-3 (Homo sapiens (Human), UniProt Q86V86); assay: PIM-3 biochemical assay (ADP Hunter); conditions: semi-quantitative; read-out: PIM3 IC50
[1] = read-out: PIM1 IC50, semi-quantitative

Sequence of PIM-2 (Q9P1W9 whole entry): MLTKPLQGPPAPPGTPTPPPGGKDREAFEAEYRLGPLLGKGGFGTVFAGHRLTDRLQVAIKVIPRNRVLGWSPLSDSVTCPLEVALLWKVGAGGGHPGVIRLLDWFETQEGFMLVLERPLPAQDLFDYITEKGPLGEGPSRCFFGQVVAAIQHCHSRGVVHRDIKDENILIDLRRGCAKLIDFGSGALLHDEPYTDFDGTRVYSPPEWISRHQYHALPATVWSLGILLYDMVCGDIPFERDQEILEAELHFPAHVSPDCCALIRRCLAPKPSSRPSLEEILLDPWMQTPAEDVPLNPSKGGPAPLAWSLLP

| SMILES | pIC50 (PIM-2) | pIC50 (PIM-1; [1]) | pIC50 (PIM-3) | pIC50 (PIM-1) |
| --- | --- | --- | --- | --- |
| CN1CCOc2c1c(NC1CCOCC1)nn1c(-c3cccc(OC(F)(F)F)c3)nnc21 [Example 23, [6-Methyl-3-(3-trifluoromethoxy-phenyl)-7,8-dihydro-6H-9-oxa-1,2,3a,4,6-pentaaza-cyclopenta[a]naphthalen-5-yl]-(tetrahydro-pyran-4-yl)-amine] | > 7.00 | > 7.00 | 6.00 to 7.00 | – |
| CN1CCOc2c1c(NCCc1cccnc1)nn1c(-c3cccc(OC(F)(F)F)c3)nnc21 [Example 26, [6-Methyl-3-(3-trifluoromethoxy-phenyl)-7,8-dihydro-6H-9-oxa-1,2,3a,4,6-pentaaza-cyclopenta[a]naphthalen-5-yl]-(2-pyridin-3-yl-ethyl)-amine] | 6.00 to 7.00 | – | 6.00 to 7.00 | – |
| CN1CCOc2c1c(NCC1CCC(O)CC1)nn1c(-c3cccc(OC(F)(F)F)c3)nnc21 (centres unmarked) [Example 43, 4-{[6-Methyl-3-(3-trifluoromethoxy-phenyl)-7,8-dihydro-6H-9-oxa-1,2,3a,4,6-pentaaza-cyclopenta[a]naphthalen-5-ylamino]-methyl}-cyclohexanol] | – | > 7.00 | > 7.00 | – |
| COc1ccc(-c2nnc3c4c(c(NCC5CCN(C(=O)OC(C)(C)C)CC5)nn23)N(C)CCO4)cc1 [Example 51, 4-{[3-(4-Methoxy-phenyl)-6-methyl-7,8-dihydro-6H-9-oxa-1,2,3a,4,6-pentaaza-cyclopenta[a]naphthalen-5-ylamino]-methyl}-piperidine-1-carboxylic acid tert-butyl ester] | < 6.00 | < 6.00 | – | – |
| CN1CCOc2c(NCC34CCN(CC3)C4)nn3c(-c4cccc(OC(F)(F)F)c4)nnc3c21 [Example 53, (1-Aza-bicyclo[2.2.1]hept-4-ylmethyl)-[9-methyl-3-(3-trifluoromethoxy-phenyl)-8,9-dihydro-7H-6-oxa-1,2,3a,4,9-pentaaza-cyclopenta[a]naphthalen-5-yl]-amine] | < 6.00 | – | – | 6.00 to 7.00 |
| CN1CCOc2c1c(N1CCC(CN)CC1)nn1c(-c3cccc(OC(F)(F)F)c3)nnc21 [Example 55, C-{1-[6-Methyl-3-(3-trifluoromethoxy-phenyl)-7,8-dihydro-6H-9-oxa-1,2,3a,4,6-pentaaza-cyclopenta[a]naphthalen-5-yl]-piperidin-4-yl}-methylamine] | – | > 7.00 | > 7.00 | – |
| CN1CCOc2c1c(N1CCCC3(CCCN3C)CC1)nn1c(-c3cccc(OC(F)(F)F)c3)nnc21 (centres unmarked) [Example 61, 6-Methyl-5-(1-methyl-1,8-diaza-spiro[4.6]undec-8-yl)-3-(3-trifluoromethoxy-phenyl)-7,8-dihydro-6H-9-oxa-1,2,3a,4,6-pentaaza-cyclopenta[a]naphthalene] | 6.00 to 7.00 | > 7.00 | – | – |
| CNCC1CCN(c2nn3c(-c4cccc(OC(F)(F)F)c4)nnc3c3c2N(C)CCO3)CC1 [Example 63, Methyl-{1-[6-methyl-3-(3-trifluoromethoxy-phenyl)-7,8-dihydro-6H-9-oxa-1,2,3a,4,6-pentaaza-cyclopenta[a]naphthalen-5-yl]-piperidin-4-ylmethyl}-amine] | > 7.00 | > 7.00 | – | – |
| CN1CCC(CNc2nn3c(-c4cccc(OC(F)(F)F)c4)nnc3c3c2OCC(C)(C)N3C)CC1 [Example 72, (1-Methyl-piperidin-4-ylmethyl)-[8,8,9-trimethyl-3-(3-trifluoromethoxy-phenyl)-8,9-dihydro-7H-6-oxa-1,2,3a,4,9-pentaaza-cyclopenta[a]naphthalen-5-yl]-amine] | < 6.00 | – | 6.00 to 7.00 | 6.00 to 7.00 |
| CN1CCC(CNc2nn3c(-c4cccc(OC(F)(F)F)c4)nnc3c3c2N(C)C(C)(C)CO3)CC1 [Example 73, (1-Methyl-piperidin-4-ylmethyl)-[6,7,7-trimethyl-3-(3-trifluoromethoxy-phenyl)-7,8-dihydro-6H-9-oxa-1,2,3a,4,6-pentaaza-cyclopenta[a]naphthalen-5-yl]-amine] | 6.00 to 7.00 | > 7.00 | – | – |
| CN1CCOc2c1c(NCC1CCN(C(=O)OC(C)(C)C)CC1)nn1c(-c3cccc(OC(F)(F)F)c3)nnc21 [Example 79, 4-{[6-Methyl-3-(3-trifluoromethoxy-phenyl)-7,8-dihydro-6H-9-oxa-1,2,3a,4,6-pentaaza-cyclopenta[a]naphthalen-5-ylamino]-methyl}-piperidine-1-carboxylic acid tert-butyl ester] | < 6.00 | – | – | 6.00 to 7.00 |
| CN1CCC(CNc2nn3c(-c4ccc(O)cc4)nnc3c3c2N(C)CCO3)CC1 [Example 84, 4-{6-Methyl-5-[(1-methyl-piperidin-4-ylmethyl)-amino]-7,8-dihydro-6H-9-oxa-1,2,3a,4,6-pentaaza-cyclopenta[a]naphthalen-3-yl}-phenol] | < 6.00 | – | – | 6.00 to 7.00 |
| COc1ccc(-c2nnc3c4c(c(N5CCC(CNC(C)=O)CC5)nn23)N(C)CCO4)cc1 [Example 92, N-{1-[3-(4-Methoxy-phenyl)-6-methyl-7,8-dihydro-6H-9-oxa-1,2,3a,4,6-pentaaza-cyclopenta[a]naphthalen-5-yl]-piperidin-4-ylmeth I}-acetamide] | < 6.00 | < 6.00 | – | – |
| CC(=O)N1CCN(CCNc2nn3c(-c4cccc(OC(F)(F)F)c4)nnc3c3c2OCCN3C)CC1 [Example 95, 1-(4-{2-[9-Methyl-3-(3-trifluoromethoxy-phenyl)-8,9-dihydro-7H-6-oxa-1,2,3a,4,9-pentaaza-cyclopenta[a]naphthalen-5-ylamino]-ethyl}-piperazin-1-yl)-ethanone] | < 6.00 | < 6.00 | – | – |

Second part, the compound after the results:

| pIC50 (PIM-2) | pIC50 (PIM-1; [1]) | pIC50 (PIM-3) | pIC50 (PIM-1) | SMILES |
| --- | --- | --- | --- | --- |
| 6.00 to 7.00 | > 7.00 | 6.00 to 7.00 | – | CN1CCOc2c1c(NCCCO)nn1c(-c3cccc(OC(F)(F)F)c3)nnc21 [Example 21, 3-[6-Methyl-3-(3-trifluoromethoxy-phenyl)-7,8-dihydro-6H-9-oxa-1,2,3a,4,6-pentaaza-cyclopenta[a]naphthalen-5-ylamino]-propan-1-ol] |
| 6.00 to 7.00 | > 7.00 | > 7.00 | – | CN1CCC(CNc2nn3c(-c4cccc(C(F)(F)F)c4)nnc3c3c2N(C)CCO3)CC1 [Example 32, (1-Methyl-piperidin-4-ylmethyl)-[6-methyl-3-(3-trifluoromethyl-phenyl)-7,8-dihydro-6H-9-oxa-1,2,3a,4,6-pentaaza-cyclopenta[a]naphthalen-5-yl]-amine] |
| < 6.00 | – | – | 6.00 to 7.00 | CN1CCOc2c(NC3CCNCC3)nn3c(-c4cccc(OC(F)(F)F)c4)nnc3c21 [Example 47, [9-Methyl-3-(3-trifluoromethoxy-phenyl)-8,9-dihydro-7H-6-oxa-1,2,3a,4,9-pentaaza-cyclopenta[a]naphthalen-5-yl]-piperidin-4-yl-amine] |
| > 7.00 | > 7.00 | – | – | CN1CCOc2c1c(N1CCCC3(CCNCC3)C1)nn1c(-c3cccc(OC(F)(F)F)c3)nnc21 [Example 68, 5-(2,9-Diaza-spiro[S5.5]undec-2-yl)-6-methyl-3-(3-trifluoromethoxy-phenyl)-7,8-dihydro-6H-9-oxa-1,2,3a,4,6-pentaaza-cyclopenta[a]naphthalene] |
| < 6.00 | < 6.00 | – | – | COc1ccc(-c2nnc3c4c(c(NCc5ccc(F)cc5)nn23)OCCN4C)cc1 [Example 80, (4-Fluoro-benzyl)-[3-(4-methoxy-phenyl)-9-methyl-8,9-dihydro-7H-6-oxa-1,2,3a,4,9-pentaaza-cyclopenta[a]naphthalen-5-yl]-amine] |
| < 6.00 | – | – | 6.00 to 7.00 | CN1CCOc2c(N3CC4(CCNCC4)C3)nn3c(-c4cccc(OC(F)(F)F)c4)nnc3c21 [Example 83, 5-(2,7-Diaza-spiro[3.5]non-2-yl)-9-methyl-3-(3-trifluoromethoxy-phenyl)-8,9-dihydro-7H-6-oxa-1,2,3a,4,9-pentaaza-cyclopenta[a]naphthalene] |
| 6.00 to 7.00 | > 7.00 | 6.00 to 7.00 | – | CC(C)NCC1CCN(c2nn3c(-c4cccc(OC(F)(F)F)c4)nnc3c3c2N(C)CCO3)CC1 [Example 85, Isopropyl-{1-[6-methyl-3-(3-trifluoromethoxy-phenyl)-7,8-dihydro-6H-9-oxa-1,2,3a,4,6-pentaaza-cyclopenta[a]naphthalen-5-yl]-piperidin-4-ylmethyl}-amine] |
| < 6.00 | > 7.00 | – | 6.00 to 7.00 | CN1CCN(C)c2c1c(NCc1ccc(F)cc1)nn1c(-c3ccc(O)cc3)nnc21 [Example 94, 4-[5-(4-Fluoro-benzylamino)-6,9-dimethyl-6,7,8,9-tetrahydro-1,2,3a,4,6,9-hexaaza-cyclopenta[a]naphthalen-3-yl]-phenol] |
| < 6.00 | – | – | 6.00 to 7.00 | CN1CCOc2c(NCCN3CCN(S(C)(=O)=O)CC3)nn3c(-c4cccc(OC(F)(F)F)c4)nnc3c21 [Example 96, [2-(4-Methanesulfonyl-piperazin-1-yl)-ethyl]-[9-methyl-3-(3-trifluoromethoxy-phenyl)-8,9-dihydro-7H-6-oxa-1,2,3a,4,9-pentaaza-cyclopenta[a]naphthalen-5-yl]-amine] |
| > 7.00 | > 7.00 | – | – | FC(F)(F)Oc1cccc(-c2nnc3c4c(c(NCC5CC5)nn23)OCCO4)c1 [Example 102, Cyclopropylmethyl-[3-(3-trifluoromethoxy-phenyl)-7,8-dihydro-6,9-dioxa-1,2,3a,4-tetraaza-cyclopenta[a]naphthalen-5-yl]-amine] |
| < 6.00 | > 7.00 | – | – | CN1CCOc2c1c(NCC1CC[N+](C)([O-])CC1)nn1c(-c3cccc(OC(F)(F)F)c3)nnc21 (centres unmarked) [Example 103, (1-Methyl-1-oxy-pipe-din-4-ylmethyl)-[6-methyl-3-(3-trifluoromethoxy-phenyl)-7,8-dihydro-6H-9-oxa-1,2,3a,4,6-pentaaza-cyclopenta[a]naphthalen-5-yl]-amine] |
